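Method: 48-hour compound exposure of cells in 96-well plates, five concentrations, linear interpolation of endpoints. Definition used: TGI = concentration required for complete inhibition of growth.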 Where a SMILES comes first, the peptide text is derived from it. The star is where a group is joined. Boc = CC(C)(C)OC(=O)*; OBn = c1ccc(CO*)cc1
How the values were obtained:
Assay in all cases: DTP human tumour cell line panel, 48 h
ACHN renal = tested on: ACHN renal
IGROV1 ovarian = tested on: IGROV1 ovarian
MDA-MB-231 breast = tested on: MDA-MB-231 breast
NCI-H522 lung = tested on: NCI-H522 lung
SK-OV-3 ovarian = tested on: SK-OV-3 ovarian
SW-620 colon = tested on: SW-620 colon

SMILES	TGI (ACHN renal)	TGI (IGROV1 ovarian)	TGI (MDA-MB-231 breast)	TGI (NCI-H522 lung)	TGI (SK-OV-3 ovarian)	TGI (SW-620 colon)
CCOc1cc2c(cc1O)/C(=N/NS(=O)(=O)c1ccc(C)cc1)C[C@@H]1[C@@H]2CC[C@]2(C)[C@@H](O)CC[C@@H]12	81.2 µM	> 100 µM	> 100 µM	> 100 µM	> 100 µM	> 100 µM
Cc1ccc(S(=O)(=O)n2c3c(c4ccccc42)CCN2CCC(Br)C[C@@H]32)cc1 (stereo partly drawn)	34.8 µM	22.3 µM	31.3 µM	18.6 µM	31.9 µM	26.1 µM
COC(=O)CC(=O)Nc1sccc1S(=O)(=O)c1ccccc1	> 100 µM	> 100 µM	> 100 µM	> 100 µM	> 100 µM	> 100 µM
O=C1CCCCC/C1=C\c1ccc(Cl)cc1	> 100 µM	> 100 µM	> 100 µM	73 µM	> 100 µM	61.2 µM
O=C1[C@@H]2C[C@@H](O)CN2C(=O)c2ccccc2N1CCCO	> 100 µM	> 100 µM	> 100 µM	> 100 µM	> 100 µM	> 100 µM
Cc1ccc(S(=O)(=O)NNC2(NS(=O)(=O)c3ccc(Cl)cc3)C(Cl)=C(Cl)C(=O)c3ccccc32)cc1 (stereo not drawn)	29.7 µM	34.3 µM	44.9 µM	> 100 µM	32.2 µM	76 µM
COc1cc(Oc2nc3c(N)cc(C(F)(F)F)cc3nc2-c2ccccc2)cc(OC)c1OC	32.5 µM	> 24.3 µM	> 100 µM	18.8 µM	> 66.5 µM	> 26.2 µM
Nc1ncnc2c1cnn2Cc1cn(COCC(O)CO)nn1 (stereo not drawn)	> 100 µM	> 100 µM	> 100 µM	30.8 µM	> 100 µM	> 100 µM
O=C(Cc1ccccc1)NNc1nc(NNC(=O)c2ccncc2)nc(Nc2cccc(Cl)c2)n1	–	> 10 µM	> 10 µM	–	> 10 µM	> 10 µM
O=C1C(=Nc2ccccc2)Oc2cc(O)ccc21	> 100 µM	> 100 µM	> 100 µM	> 100 µM	> 100 µM	> 100 µM
CCOc1ccc(NCC2CC/C(=C\c3ccc(O)cc3)C2=O)cc1 (stereo not drawn)	31.2 µM	33.9 µM	38.4 µM	11.7 µM	> 58.5 µM	27.1 µM
c1ccc2cc(CNCCOCCOCCNCc3ccc4ccccc4c3)ccc2c1	3.26 µM	3.22 µM	3.11 µM	3.44 µM	8.62 µM	4.62 µM
C[n+]1cccc2ccc(OC(=O)c3ccccc3)cc21	> 100 µM	> 100 µM	–	> 100 µM	> 100 µM	> 100 µM
CCOc1cc2c(cc1OC(C)=O)C(=O)CC[C@H]1C3CC[C@H](OC(C)=O)[C@@]3(C)CC[C@H]21 (stereo partly drawn)	> 100 µM	–	> 100 µM	> 100 µM	> 100 µM	> 100 µM
COc1cc(/C=C2\C(=O)N(Cc3ccccc3)C(c3ccccc3)S2(=O)=O)cc(OC)c1OC (stereo not drawn)	> 100 µM	–	> 100 µM	> 100 µM	> 100 µM	> 100 µM
O=C1/C(=C/c2ccccc2)CCC/C1=C\c1ccc(O)c(CN2CCCCC2)c1	3.8 µM	11.2 µM	6.28 µM	7.22 µM	22.2 µM	5.94 µM
O=C(CCCN1CCC2(CC1)CC(=O)N(N1CCCCCC1)C2=O)c1ccc(F)cc1	> 100 µM	> 100 µM	> 100 µM	> 100 µM	> 100 µM	> 100 µM
Cc1ccc(S(=O)(=O)Nn2c(S)c(C#N)c(-c3ccc([N+](=O)[O-])cc3)c(C#N)c2=O)cc1	> 100 µM	51 µM	36.5 µM	30.2 µM	> 100 µM	35.1 µM
O=C(NCCc1ccccc1)c1c(O)c2ccccc2[nH]c1=O	> 100 µM	> 100 µM	> 100 µM	> 100 µM	–	> 100 µM
O=C(Cc1ccccc1)NCCCN(CCCCN(CCCNC(=O)Cc1ccccc1)C(=O)OCc1ccccc1)C(=O)OCc1ccccc1	> 100 µM	> 100 µM	> 100 µM	12.2 µM	> 100 µM	> 100 µM
CC(C)(C)OC(=O)N(CCNS(=O)(=O)c1cccc2cnccc12)CCC(=O)ON1C(=O)CCC1=O	> 100 µM	> 100 µM	> 100 µM	> 100 µM	> 100 µM	> 100 µM
C=CCCCC1CCCNC1=S (stereo not drawn)	> 100 µM	> 100 µM	> 100 µM	> 100 µM	> 100 µM	> 100 µM
CC1=N[C@](C)(C2CC3C=CC2C3=O)COC1=O (stereo partly drawn)	> 100 µM	> 100 µM	> 100 µM	> 100 µM	> 100 µM	> 100 µM

SMILES	TGI (ACHN renal)	TGI (IGROV1 ovarian)	TGI (MDA-MB-231 breast)	TGI (NCI-H522 lung)	TGI (SK-OV-3 ovarian)	TGI (SW-620 colon)
CC(=O)N(CN1C(=O)CCC1C(=O)O)c1cccc(O)c1 (stereo not drawn)	> 100 µM	> 100 µM	> 100 µM	> 100 µM	> 100 µM	> 100 µM
NC(=O)NC(=O)c1cccc(NC(=O)CF)c1	> 100 µM	> 100 µM	> 100 µM	> 100 µM	> 100 µM	> 100 µM
CC(=O)O[C@H]1CCn2c3c(c(C)c21)C(=O)C(N1CC1)=C(C)C3=O	> 10 µM	> 10 µM	> 10 µM	> 10 µM	> 10 µM	> 10 µM
CCN(CC)C(=S)N=Nc1c(O)[nH]c2ccccc12	10.1 µM	2.42 µM	8.02 µM	14.4 µM	12.6 µM	19.7 µM
CC(C)CCc1n[nH]c(=O)n1/N=C\c1ccccc1	> 100 µM	> 100 µM	> 100 µM	> 100 µM	> 100 µM	> 100 µM
Cc1n[nH]c(=O)n1/N=C\CC/C=N\n1c(C)n[nH]c1=O	> 100 µM	> 100 µM	> 100 µM	> 100 µM	> 100 µM	> 100 µM
CC(NC(=O)C(Cc1ccccc1)NC(=O)C(Cc1ccccc1)NC(=O)OC(C)(C)C)C(=O)OCc1ccccc1 (stereo not drawn) (Boc-Phe-Phe-Ala-OBn; configuration not given here)	–	> 100 µM	> 100 µM	> 100 µM	> 100 µM	> 100 µM
NNCCc1n[nH]c(=O)n1N	> 100 µM	> 100 µM	> 100 µM	> 100 µM	> 100 µM	> 100 µM
CN(C)CCn1c(=O)c2ccc3c4c(nn3CCN(C)C)c3cc(O)ccc3n(c1=O)c24	0.689 µM	–	0.727 µM	0.0292 µM	0.74 µM	3.61 µM
O=C1CC(C(=O)N2CCCCC2)n2c(=O)n(-c3ccccc3)c(=O)n2C1 (stereo not drawn)	> 100 µM	> 100 µM	> 100 µM	> 100 µM	> 100 µM	–
CC12c3c4cc(Br)cc3Oc3cc(Br)cc(c31)Oc1cc(Br)cc(c12)O4	> 100 µM	86.6 µM	59.3 µM	–	> 100 µM	> 100 µM
O=C1NC(=O)C(COCc2ccccc2)C2=C1SCCC2 (stereo not drawn)	> 100 µM	> 100 µM	> 100 µM	> 100 µM	–	> 100 µM
c1ccc2c(c1)nc1n2C2CCC(C2)N1 (stereo not drawn)	–	> 10 µM	> 10 µM	> 10 µM	> 10 µM	> 10 µM
C/C(CC1SCCCS1)=C(/C)CC1SCCCS1	> 100 µM	> 100 µM	> 100 µM	–	–	> 100 µM
O=C(/C=C/c1ccc(Cl)cc1)c1cccs1	37.5 µM	75.3 µM	39.9 µM	–	77 µM	30.4 µM
Cn1c(=O)c2c(ncn2CCCCOc2ccc3c(c2)[n+]([O-])nc(N)[n+]3[O-])n(C)c1=O	–	67.6 µM	> 100 µM	> 100 µM	> 100 µM	> 100 µM
CCOc1ncn(-c2ccc(NC(=S)NC34CC5CC(CC(C5)C3)C4)cc2)n1	–	> 100 µM	> 100 µM	> 100 µM	> 100 µM	> 100 µM
COc1ccc(C(=O)/C=C/c2cccnc2)cc1OC	26.7 µM	21.9 µM	23.8 µM	3.5 µM	28.6 µM	–
COC(=O)[C@@]12C(=O)C(C)C(=O)[C@]1(C)C(C)=C[C@H]1[C@]3(C=O)CC[C@H](OC(C)=O)C(C)(C)[C@H]3CC[C@@]12C (stereo partly drawn)	> 100 µM	–	> 100 µM	> 100 µM	> 100 µM	> 100 µM
COc1ccc(C2(O)c3ccccc3C(=O)N(C)C2(O)c2ccc(OC)cc2)cc1 (stereo not drawn)	–	> 100 µM	> 100 µM	74.9 µM	> 100 µM	> 100 µM
O=C(CNC(=O)OCc1ccccc1)NCCCCC(NC(=O)OCc1ccccc1)C(=O)NC(CCCCNC(=O)CNC(=O)OCc1ccccc1)C(=O)OCc1ccccc1 (stereo not drawn)	> 62.5 µM	> 62.5 µM	> 62.5 µM	> 62.5 µM	–	> 62.5 µM
CC(C)(C)[Si](C)(C)OCCOCn1cc(F)c(=O)[nH]c1=O	> 100 µM	> 100 µM	–	> 100 µM	> 100 µM	> 100 µM
